From patent publication US5888998A, “2-oxo-1-azetidine sulfonic acid derivatives as potent β-lactamase inhibitors” (Synphar Laboratories, Inc., priority 1997, dated 1999)
Where a name gives a salt, the structure may show the parent alone.

Experiments:
[1] = target: T1, cephalosporinase (Pseudomonas aeruginosa, UniProt P24735); test: β-lactamase inhibitory activity, spectrophotometric rate assay with nitrocefin as substrate; assay type: biochemical, P. aeruginosa 46012
T1 construct: nitrocefin as substrate; purification not described
T1 sequence (P24735 27-397): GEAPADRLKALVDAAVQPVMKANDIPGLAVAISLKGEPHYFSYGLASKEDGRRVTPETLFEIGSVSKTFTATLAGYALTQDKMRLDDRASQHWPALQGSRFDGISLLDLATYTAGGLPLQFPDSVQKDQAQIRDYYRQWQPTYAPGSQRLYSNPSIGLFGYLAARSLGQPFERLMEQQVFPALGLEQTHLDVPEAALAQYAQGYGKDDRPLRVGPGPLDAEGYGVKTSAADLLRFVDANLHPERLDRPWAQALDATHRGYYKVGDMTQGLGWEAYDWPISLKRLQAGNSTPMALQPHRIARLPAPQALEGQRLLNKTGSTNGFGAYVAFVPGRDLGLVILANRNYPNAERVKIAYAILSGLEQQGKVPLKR
Excerpt: As already said, the oxyimino fragment i.e., =N--OR2 in the formula (I) in its `anti` orientation provides excellent synergy with a β-lactam antibiotic against class C β-lactamase (cephalosporinase) producing microorganisms, P. aeruginosa, in particular. Thus this invention includes only those compounds having the formula (I) in which the oxyimino group (=N--OR2) is specifically in the `anti` orientation as shown in (I). Furthermore, the inhibitory activity against the isolated β-lactamase (e.g., cephalosporinase from P. aeruginosa 46012) and the synergy with a β-lactam antibiotic is greatly influenced by the nature of the heterocyclic ring represented by R1 and the nature of the substituent in the oxime fragment represented by R2.
The inhibitory activities of present compounds (β-lactamase inhibitors) against cephalosporinase was measured by spectrophotometric rate assay using […] and using nitrocefin as a substrate (J. Antimicrob. Chemother., vol. 28, pp 775-776, 1991).

[2] = test system: β-lactamase; details: cited from earlier work
[3] = test system: P. aeruginosa 46220 DR-2; test: MIC of ceftazidime, microbroth dilution; assay type: cell-based; details: Pseudomonas aeruginosa, 46220DR2, alone, 18 h, 37° C.
Protocol: The MICs of the antibiotics (ceftazidime) alone, the MICs of ceftazidime in combination with reference compounds particularly aztreonam (ref. compd. I) and the MICs of the β-lactamase inhibitors (10 μg/ml) of the present invention in combination with ceftazidime were determined with the same β-lactamase producing bacteria. After incubation in Mueller-Hinton Broth (Difco) at 37° C. for 18 h, the bacterial suspension was diluted and about 10^5 CFU/ml was applied to the drug-containing Mueller-Hinton Broth in each well of 96 well plate. The MICs were recorded after 18 h of incubation at 37° C. on the lowest combinations of drug that inhibited visible growth of bacteria.

[4] = test system: E. cloacae P99; test: microbe, parasite or virus in culture; assay type: cell-based; details: Enterobacter cloacae, P99, 18 h, read-out: MIC of ceftazidime alone
Protocol: (§1) After incubation in Mueller-Hinton Broth (Difco) at 37° C. for 18 h, the bacterial suspension was diluted and about 10^5 CFU/ml was applied to the drug-containing Mueller-Hinton Broth in each well of 96 well plate. The MICs were recorded after 18 h of incubation at 37° C. on the lowest combinations of drug that inhibited visible growth of bacteria.

[5] = test system: M. morganii 36014; test: MIC of ceftazidime, microbroth dilution; assay type: cell-based; details: Morganella morganii, 36014, 18 h, read-out: MIC of ceftazidime alone
Protocol: as §1, with “[…]. After” for “After”

[6] = test system: P. aeruginosa CT-137; test: MIC of ceftazidime, microbroth dilution; assay type: cell-based; details: Pseudomonas aeruginosa, CT137, 18 h, read-out: MIC of ceftazidime alone
Protocol: as §1, with “[…]. After” for “After”

[7] = test system: P. aeruginosa sp 2439 Wt.; test: MIC of ceftazidime, microbroth dilution; assay type: cell-based; details: Pseudomonas aeruginosa, SP2439WT., 18 h, read-out: MIC of ceftazidime alone
Protocol: as §1, with “[…]. After” for “After”

[8] = test system: P. aeruginosa L46004; test: MIC of ceftazidime, microbroth dilution; assay type: cell-based; details: Pseudomonas aeruginosa, L46004, 18 h, read-out: MIC of ceftazidime alone
Protocol: as §1, with “[…]. After” for “After”

[9] = test system: P. aeruginosa CT-144; test: MIC of ceftazidime, microbroth dilution; assay type: cell-based; details: Pseudomonas aeruginosa, CT144, 18 h, read-out: MIC of ceftazidime alone
Protocol: as §1, with “[…]. After” for “After”

[10] = test system: P. aeruginosa AU-10; test: MIC of ceftazidime, microbroth dilution; assay type: cell-based; details: Pseudomonas aeruginosa, AU10, 18 h, read-out: MIC of ceftazidime alone
Protocol: as §1, with “[…]. After” for “After”

[11] = test system: P. aeruginosa 46012 (R); test: MIC of ceftazidime, microbroth dilution; assay type: cell-based; details: Pseudomonas aeruginosa, 18 h, read-out: MIC of ceftazidime alone
Protocol: as §1, with “[…]. After” for “After”

[12] = test system: P. aeruginosa M 1405; test: MIC of ceftazidime, microbroth dilution; assay type: cell-based; details: Pseudomonas aeruginosa, M1405, 18 h, read-out: MIC of ceftazidime alone
Protocol: as §1, with “[…]. After” for “After”

[13] = test system: E. aerogenes S-95; test: MIC of ceftazidime, microbroth dilution; assay type: cell-based; details: Klebsiella aerogenes, S95, 18 h, read-out: MIC of ceftazidime alone
Protocol: as §1, with “[…]. After” for “After”

[14] = test system: M. morganii 36030; test: MIC of ceftazidime, microbroth dilution; assay type: cell-based; details: Morganella morganii, 36030, 18 h, read-out: MIC of ceftazidime alone
Protocol: as §1, with “[…]. After” for “After”

[15] = test system: P. aeruginosa AU-7; test: MIC of ceftazidime, microbroth dilution; assay type: cell-based; details: Pseudomonas aeruginosa, AU7, 18 h, read-out: MIC of ceftazidime alone
Protocol: as §1, with “[…]. After” for “After”

[16] = test system: P. aeruginosa AU-5; test: MIC of ceftazidime, microbroth dilution; assay type: cell-based; details: Pseudomonas aeruginosa, AU5, 18 h, read-out: MIC of ceftazidime alone
Protocol: as §1, with “[…]. After” for “After”

[17] = test system: P. aeruginosa AU-8; test: MIC of ceftazidime, microbroth dilution; assay type: cell-based; details: Pseudomonas aeruginosa, AU8, 18 h, read-out: MIC of ceftazidime alone
Protocol: as §1, with “[…]. After” for “After”

[18] = test system: P. aeruginosa M 2297; test: MIC of ceftazidime, microbroth dilution; assay type: cell-based; details: Pseudomonas aeruginosa, M2297, 18 h, read-out: MIC of ceftazidime alone
Protocol: as §1, with “[…]. After” for “After”

[19] = test system: P. aeruginosa CT-122; test: MIC of ceftazidime, microbroth dilution; assay type: cell-based; details: Pseudomonas aeruginosa, CT122, 18 h, read-out: MIC of ceftazidime alone
Protocol: as §1, with “[…]. After” for “After”

[20] = test system: E. aerogenes 41006; test: MIC of ceftazidime, microbroth dilution; assay type: cell-based; details: Klebsiella aerogenes, 41006, 18 h, read-out: MIC of ceftazidime alone
Protocol: as §1, with “[…]. After” for “After”

[21] = test system: P. aeruginosa AU-1; test: MIC of ceftazidime, microbroth dilution; assay type: cell-based; details: Pseudomonas aeruginosa, AU1, 18 h, read-out: MIC of ceftazidime alone
Protocol: as §1, with “[…]. After” for “After”

[22] = test system: P. aeruginosa 46220 DR-2-1; test: MIC of ceftazidime, microbroth dilution; assay type: cell-based; details: Pseudomonas aeruginosa, 46220DR21, 18 h, read-out: MIC of ceftazidime alone
Protocol: as §1, with “[…]. After” for “After”

[23] = test system: P. aeruginosa PAO 303 carb-4; test: MIC of ceftazidime, microbroth dilution; assay type: cell-based; details: Pseudomonas aeruginosa, PAO303CARB4, 18 h, read-out: MIC of ceftazidime alone
Protocol: as §1, with “[…]. After” for “After”

[24] = test system: P. fluorescens sp 5953; test: MIC of ceftazidime, microbroth dilution; assay type: cell-based; details: Pseudomonas fluorescens, SP5953, 18 h, read-out: MIC of ceftazidime alone
Protocol: as §1, with “[…]. After” for “After”

[25] = test system: P. aeruginosa 46017; test: MIC of ceftazidime, microbroth dilution; assay type: cell-based; details: Pseudomonas aeruginosa, 46017, 18 h, read-out: MIC of ceftazidime alone
Protocol: as §1, with “[…]. After” for “After”

[26] = test system: E. cloacae 40054; test: MIC of ceftazidime, microbroth dilution; assay type: cell-based; details: Enterobacter cloacae, 40054, 18 h, read-out: MIC of ceftazidime alone
Protocol: as §1

[27] = test system: E. cloacae MNH-2; test: MIC of ceftazidime, microbroth dilution; assay type: cell-based; details: Enterobacter cloacae, MNH2, 18 h, read-out: MIC of ceftazidime alone
Protocol: as §1

C[C@H]1[C@H](NC(=O)/C(=N/OCc2cc(=O)c(O)cn2O)c2cccs2)C(=O)N1S(=O)(=O)O [Compound 1, (3S)-trans-3-[(E)-2-(2-thienyl)-2-{(1,5-dihydroxy-4-pyridon-2-ylmethoxy)imino}acetamido]-4-methyl-2-oxoazetidine-1-sulfonic acid]
IC50 [1]: 60 nM

C[C@H]1[C@H](NC(=O)/C(=N/OCc2cc(=O)c(O)cn2O)c2cccs2)C(=O)N1S(=O)(=O)O [Compound 2]
IC50 [1]: 40 nM

C[C@H]1[C@H](NC(=O)/C(=N/OCc2cc(=O)c(O)cn2O)c2cccs2)C(=O)N1S(=O)(=O)O [Compound 3]
IC50 [1]: 10 nM

CC(O/N=C(/C(=O)N[C@@H]1C(=O)N(S(=O)(=O)O)[C@H]1C)c1cccs1)c1cc(=O)c(O)cn1O (some centres unmarked) [Compound 4]
IC50 [1]: 60 nM

C=CCC(O/N=C(/C(=O)N[C@@H]1C(=O)N(S(=O)(=O)O)[C@H]1C)c1cccs1)c1cc(=O)c(O)cn1O (some centres unmarked) [Compound 5]
IC50 [1]: 50 nM

C[C@H]1[C@H](NC(=O)/C(=N/OC(c2ccc(F)cc2)c2cc(=O)c(O)cn2O)c2cccs2)C(=O)N1S(=O)(=O)O (some centres unmarked) [Compound 6]
IC50 [1]: 100 nM

C[C@H]1[C@H](NC(=O)/C(=N/OCCSCc2cc(=O)c(O)cn2O)c2cccs2)C(=O)N1S(=O)(=O)O [Compound 7]
IC50 [1]: 60 nM

C[C@H]1[C@H](NC(=O)/C(=N/OCCNC(=O)/C(=N\OCc2cc(=O)c(O)cn2O)c2cccs2)c2cccs2)C(=O)N1S(=O)(=O)O [Compound 9]
IC50 [1]: 6 nM

C[C@H]1[C@H](NC(=O)/C(=N/OCCNC(=O)/C(=N/OCc2cc(=O)c(O)cn2O)c2cccs2)c2cccs2)C(=O)N1S(=O)(=O)O [Compound 10]
IC50 [1]: 1 nM

C/C(=N/OCc1cc(=O)c(O)cn1O)C(=O)NCCO/N=C(/C(=O)N[C@@H]1C(=O)N(S(=O)(=O)O)[C@H]1C)c1cccs1 [Compound 11]
IC50 [1]: 50 nM

C[C@H]1[C@H](NC(=O)/C(=N/OCCNC(=O)/C(=N\OCc2cc(=O)c(O)cn2O)c2csc(N)n2)c2cccs2)C(=O)N1S(=O)(=O)O [Compound 12]
IC50 [1]: 6 nM

C[C@H]1[C@H](NC(=O)/C(=N/OCCNC(=O)c2cc(=O)c(O)c[nH]2)c2cccs2)C(=O)N1S(=O)(=O)O [Compound 13]
IC50 [1]: 10 nM

C[C@H]1[C@H](NC(=O)/C(=N/OCc2cc(=O)c(O)c[nH]2)c2cccs2)C(=O)N1S(=O)(=O)O [Compound 14, (3S)-trans-3-[(E)-2-(2-thienyl)-2{(5-hydroxy-4-pyridon-2-ylmethoxy)imino}acetamido]-4-methyl-2-oxoazetidine-1-sulfonic acid, potassium salt]
IC50 [1]: 40 nM

C[C@H]1[C@H](NC(=O)/C(=N/OCc2cc(=O)c(O)cn2O)c2cccn2C)C(=O)N1S(=O)(=O)O [Compound 15]
IC50 [1]: 900 nM

C[C@H]1[C@H](NC(=O)/C(=N/OCC(N)COC(=O)/C(=N\OCc2cc(=O)c(O)cn2O)c2cccs2)c2cccs2)C(=O)N1S(=O)(=O)O (some centres unmarked) [Compound 16]
IC50 [1]: 4.5 nM

C[C@H]1[C@H](NC(=O)/C(=N\OC(C)(C)C(=O)O)c2csc(N)n2)C(=O)N1S(=O)(=O)O [Ref. compd. I, Aztreonam]
β-lactamase inhibitory properties [2]: possesses β-lactamase inhibitory properties
IC50 [1]: 130 nM

C[C@H]1[C@H](NC(=O)/C(=N\OCc2cc(=O)c(O)cn2O)c2cccs2)C(=O)N1S(=O)(=O)O [Ref. compd. III]
IC50 [1]: 40 nM

C[C@H]1[C@H](NC(=O)/C(=N/OC(C)(C)C(=O)O)c2csc(N)n2)C(=O)N1S(=O)(=O)O [Ref. compd. II]
IC50 [1]: 2000 nM

CC(C)(O/N=C(\C(=O)N[C@@H]1C(=O)N2C(C(=O)[O-])=C(C[n+]3ccccc3)CS[C@H]12)c1csc(N)n1)C(=O)O [ceftazidime]
MIC [3]: 32 µg/mL
MIC [4]: > 32 µg/mL
MIC [5]: 32 µg/mL
MIC [6]: 16 µg/mL
MIC [7]: > 32 µg/mL
MIC [8]: > 32 µg/mL
MIC [9]: > 32 µg/mL
MIC [10]: 32 µg/mL
MIC [11]: > 32 µg/mL
MIC [12]: > 32 µg/mL
MIC [13]: > 32 µg/mL
MIC [14]: > 32 µg/mL
MIC [15]: > 32 µg/mL
MIC [16]: > 32 µg/mL
MIC [17]: > 32 µg/mL
MIC [18]: > 32 µg/mL
MIC [19]: 32 µg/mL
MIC [20]: > 32 µg/mL
MIC [21]: > 32 µg/mL
MIC [22]: > 32 µg/mL
MIC [23]: 32 µg/mL
MIC [24]: > 32 µg/mL
MIC [25]: > 32 µg/mL
MIC [26]: > 32 µg/mL
MIC [27]: > 32 µg/mL
